Source: the supplement of paper PMC8617591

Legend:
[1] = tested on: Mycobacterium tuberculosis Erdman (autoluminescent); assay: Einf, fitted maximum growth inhibition of combination (fraction); higher = stronger maximal inhibition
Experimental: (§1)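 DiaMOND equipotent two-drug combination dose responses against autoluminescent M. tuberculosis Erdman in 8 in vitro models. Read-out is OD600, or luminescence for the intracellular and dormancy models, normalised to untreated wells. Hill-fit Einf, AUC25 and GRinf are potency metrics; FIC50 and FIC90 are Loewe-additivity fractional inhibitory concentrations, given as log2 (negative = synergy). Replicates are averaged.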

[2] = tested on: Mycobacterium tuberculosis Erdman (autoluminescent); assay: FIC90 (Loewe) at 90% inhibition (log2); higher = more antagonistic
Experimental: as §1

[3] = tested on: Mycobacterium tuberculosis Erdman (autoluminescent); assay: GRinf, maximum normalised growth rate inhibition (unitless (-1 to 1)); higher = less effect (negative = killing)
Experimental: as §1

[4] = tested on: Mycobacterium tuberculosis Erdman (autoluminescent); assay: AUC25, normalised area under dose response up to IC25 (fraction (0-1)); higher = more potent at low dose
Experimental: as §1

[5] = tested on: Mycobacterium tuberculosis Erdman (autoluminescent); assay: FIC50 (Loewe) at 50% inhibition (log2); higher = more antagonistic
Experimental: as §1

COc1nc2ccc(Br)cc2cc1[C@@H](c1ccccc1)[C@@](O)(CCN(C)C)c1cccc2ccccc12 [bedaquiline] + COc1c(N2C[C@@H]3CCCN[C@@H]3C2)c(F)cc2c(=O)c(C(=O)O)cn(C3CC3)c12 [moxifloxacin]
Conditions	AUC25, [4]	Einf, [1]	FIC50, [5]	FIC90, [2]	GRinf, [3]
in vitro model: acidic pH 5.7, time point: constant (~7 days, model-specific)	0.111	0.834	0.282	–	-0.5
in vitro model: acidic pH 5.7, time point: terminal (~4-5 doublings, model-specific)	0.0707	0.974	0.69	0.144	-0.382
in vitro model: intracellular J774, time point: constant = terminal	–	0.975	–	0.878	-0.309

Conditions	AUC25, [4]	Einf, [1]	FIC50, [5]	FIC90, [2]	GRinf, [3]
in vitro model: butyrate, time point: constant (~7 days, model-specific)	0.092	0.966	0.816	0.849	-0.175
in vitro model: butyrate, time point: terminal (~4-5 doublings, model-specific)	0.059	0.981	0.823	0.833	-0.131
in vitro model: cholesterol 0.05 mM, time point: constant (~7 days, model-specific)	0.112	0.777	0.158	–	-0.237
in vitro model: cholesterol 0.05 mM, time point: terminal (~4-5 doublings, model-specific)	0.0888	0.951	0.528	0.279	-0.314
in vitro model: cholesterol-high 0.2 mM, time point: constant (~7 days, model-specific)	0.0699	0.968	0.333	0.255	-0.699
in vitro model: cholesterol-high 0.2 mM, time point: terminal (~4-5 doublings, model-specific)	0.0477	1	0.532	0.271	-0.644
in vitro model: dormancy (butyrate + nitrate, low O2), time point: constant (~7 days, model-specific)	0.0664	0.921	0.814	0.437	0.176
in vitro model: dormancy (butyrate + nitrate, low O2), time point: terminal (~4-5 doublings, model-specific)	0.0916	0.982	0.702	1.39	-0.143
in vitro model: standard 7H9 glycerol, time point: constant = terminal	0.105	0.993	0.0351	0.704	-0.102
in vitro model: valerate, time point: constant (~7 days, model-specific)	0.0901	0.911	0.469	–	-0.123
in vitro model: valerate, time point: terminal (~4-5 doublings, model-specific)	0.0647	0.966	0.485	0.622	-0.0943

COc1nc2ccc(Br)cc2cc1[C@@H](c1ccccc1)[C@@](O)(CCN(C)C)c1cccc2ccccc12 [bedaquiline] + NC(=O)c1cnccn1 [pyrazinamide]
Conditions	AUC25, [4]	Einf, [1]	FIC50, [5]	FIC90, [2]	GRinf, [3]
in vitro model: acidic pH 5.7, time point: constant (~7 days, model-specific)	0.0806	0.84	-0.282	-1.27	-0.398
in vitro model: acidic pH 5.7, time point: terminal (~4-5 doublings, model-specific)	0.0795	0.985	-0.0485	-0.613	-0.351
in vitro model: intracellular J774, time point: constant = terminal	–	0.99	–	0.411	-0.387

Conditions	AUC25, [4]	Einf, [1]	FIC50, [5]	FIC90, [2]	GRinf, [3]
in vitro model: butyrate, time point: constant (~7 days, model-specific)	0.124	0.969	0.033	0.896	-0.595
in vitro model: butyrate, time point: terminal (~4-5 doublings, model-specific)	0.106	0.991	0.262	1.12	-0.941
in vitro model: cholesterol 0.05 mM, time point: constant (~7 days, model-specific)	0.101	0.746	–	–	-0.259
in vitro model: cholesterol 0.05 mM, time point: terminal (~4-5 doublings, model-specific)	0.0985	0.949	0.282	–	-0.43
in vitro model: cholesterol-high 0.2 mM, time point: constant (~7 days, model-specific)	0.0781	0.978	0.168	–	-0.543
in vitro model: cholesterol-high 0.2 mM, time point: terminal (~4-5 doublings, model-specific)	0.0705	1	0.224	0.208	-0.654
in vitro model: dormancy (butyrate + nitrate, low O2), time point: constant (~7 days, model-specific)	0.0588	0.919	-1.06	-1.22	0.131
in vitro model: dormancy (butyrate + nitrate, low O2), time point: terminal (~4-5 doublings, model-specific)	0.0543	0.98	-0.504	-0.991	-0.121
in vitro model: standard 7H9 glycerol, time point: constant = terminal	0.072	0.943	-0.45	–	-0.0583
in vitro model: valerate, time point: constant (~7 days, model-specific)	0.0845	0.896	0.247	–	-0.0105
in vitro model: valerate, time point: terminal (~4-5 doublings, model-specific)	0.057	0.943	0.318	0.391	0.0136

COc1nc2ccc(Br)cc2cc1[C@@H](c1ccccc1)[C@@](O)(CCN(C)C)c1cccc2ccccc12 [bedaquiline] + NNC(=O)c1ccncc1 [isoniazid]
Conditions	AUC25, [4]	Einf, [1]	FIC50, [5]	FIC90, [2]	GRinf, [3]
in vitro model: acidic pH 5.7, time point: constant (~7 days, model-specific)	0.107	0.873	0.428	–	-0.331
in vitro model: acidic pH 5.7, time point: terminal (~4-5 doublings, model-specific)	0.0934	0.984	0.351	0.404	-0.384
in vitro model: intracellular J774, time point: constant = terminal	–	0.98	–	0.531	-0.383

Conditions	AUC25, [4]	Einf, [1]	FIC50, [5]	FIC90, [2]	GRinf, [3]
in vitro model: butyrate, time point: constant (~7 days, model-specific)	0.0598	0.944	0.533	0.547	-0.0886
in vitro model: butyrate, time point: terminal (~4-5 doublings, model-specific)	0.0557	0.98	0.43	0.506	-0.111
in vitro model: cholesterol 0.05 mM, time point: constant (~7 days, model-specific)	0.102	0.729	0.373	–	-0.169
in vitro model: cholesterol 0.05 mM, time point: terminal (~4-5 doublings, model-specific)	0.0662	0.913	0.302	0.193	-0.202
in vitro model: cholesterol-high 0.2 mM, time point: constant (~7 days, model-specific)	0.0815	0.964	0.284	0.699	-0.49
in vitro model: cholesterol-high 0.2 mM, time point: terminal (~4-5 doublings, model-specific)	0.0507	0.996	0.335	0.25	-0.658
in vitro model: dormancy (butyrate + nitrate, low O2), time point: constant (~7 days, model-specific)	0.0656	0.92	0.646	0.194	0.179
in vitro model: dormancy (butyrate + nitrate, low O2), time point: terminal (~4-5 doublings, model-specific)	0.0512	0.983	0.0908	-0.202	-0.0876
in vitro model: standard 7H9 glycerol, time point: constant = terminal	0.0578	0.966	-0.0769	-0.0712	-0.124
in vitro model: valerate, time point: constant (~7 days, model-specific)	0.0996	0.946	0.561	0.24	-0.194
in vitro model: valerate, time point: terminal (~4-5 doublings, model-specific)	0.0554	0.971	0.661	0.741	-0.129
